Laboratory results reported in patent US5648347A, “Arylmorpholine, preparation and use” (Glaxo Wellcome Inc., priority 1991, dated 1997).
Where a name gives a salt, the structure may show the parent alone.

Test system: tetrabenazine-induced sedation
Assay: Antitetrabenazine Test: prevention of tetrabenazine-induced sedation in mice
Type: in vivo, Mouse (CD1 males)
Conditions: 0.5 h; Antitetrabenazine Activity in the Mouse; compound ip 30 min before tetrabenazine hydrochloride (ip); scored 30 min after tetrabenazine; read-out: ED50 (amount of the test compound required to reverse the tetrabenazine effects in 50 percent of the animals tested)
Method: Prevention of tetrabenazine-induced sedation was measured using a modification of the method of Vernier et al., First Hahnemann Symposium on Psychosomatic Medicine, ed. Nodim and Moyer, pub. Lea and Febiger, Philadelphia, 1962.
Mice, groups of 12 CD1 males each, were injected intraperitoneally (ip) with the hydrochloride salt of a compound of formula (I) in physiological saline solution or with physiological saline solution alone. Thirty minutes later each of the mice was injected (ip, 35 mg/kg) with a solution of tetrabenazine hydrochloride. Thirty minutes after the injection of tetrabenazine each mouse was examined for its level of exploratory behavior which was scored on a modification of the arbitrary scale defined by Vernier et. al. The result reported in Table I as the ED50 value is the amount of the test compound required to reverse the tetrabenazine effects in 50 percent of the animals tested.

Row | SMILES | ED50 [mg/kg]
1 | C[C@@H]1CO[C@@H](c2ccc(F)cc2)[C@H](C)N1 [Example 12, (2S,3S,5R)-2-(4-fluorophenyl)-3,5-dimethylmorpholine hydrochloride] | 6
2 | C[C@@H]1[C@@H](c2cccc(F)c2)OC[C@H](C)N1C (relative stereo) [Example 14, (+-)-(2R*,3R*,5S*)-2-(3-fluorophenyl)-3,4,5-trimethylmorpholine hydrochloride] | 8
3 | C[C@H]1CO[C@H](c2cccc(F)c2)[C@@H](C)N1 (relative stereo) [Example 1, (+-)-(2R*,3R*,5S*)-2-(3-fluorophenyl)-3,5-dimethylmorpholine hydrochloride] | 4
4 | C[C@H]1CO[C@H](c2ccc(F)cc2)[C@@H](C)N1 [Example 6, (2R,3R,5S)-2-(4-fluorophenyl)-3,5-dimethylmorpholine hydrochloride] | 10
5 | C[C@@H]1CO[C@@H](c2cccc(F)c2)[C@H](C)N1C [Example 16, (2S,3S,5R)-2-(3-fluorophenyl)-3,4,5-trimethylmorpholine hydrochloride] | 8
6 | C[C@H]1CO[C@H](c2cccc(F)c2F)[C@@H](C)N1 (relative stereo) [Example 7, (+-)-(2R*,3R*,5S*)-2-(2,3-difluorophenyl)-3,5-dimethylmorpholine hydrochloride] | 4
7 | C[C@@H]1CO[C@@H](c2ccc(F)c(F)c2)[C@H](C)N1.Cl [Example 2, (2S,3S,5R)-2-(3,4-difluorophenyl)-3,5-dimethylmorpholine hydrochloride] | 8
8 | C[C@H]1CO[C@H](c2ccc(F)cc2)[C@@H](C)N1 (relative stereo) [Example 13, (+-)-(2R*,3R*,5S*)-2-(4-fluorophenyl)-3,5-dimethylmorpholine hydrochloride] | 4
9 | C[C@@H]1[C@@H](c2ccc(F)cc2)OC[C@H](C)N1C (relative stereo) [Example 18, (+-)-(2R*,3R*,5S*)-2-(4-fluorophenyl)-3,4,5-trimethylmorpholine] | 6
